According to ChEMBL document CHEMBL3580564, “Semisynthetic Studies on and Biological Evaluation of N-Methyllaurotetanine Analogues as Ligands for 5-HT Receptors” (J Nat Prod, 2015):

Columns and labels:
[1] = biological target: T1, 5-hydroxytryptamine receptor 1A (Homo sapiens, UniProt P08908); assay: Displacement of [3H]Way100635 from human recombinant 5-HT1A receptor expressed in CHO cell membranes by radioligand binding assay
T1 sequence (P08908 whole entry): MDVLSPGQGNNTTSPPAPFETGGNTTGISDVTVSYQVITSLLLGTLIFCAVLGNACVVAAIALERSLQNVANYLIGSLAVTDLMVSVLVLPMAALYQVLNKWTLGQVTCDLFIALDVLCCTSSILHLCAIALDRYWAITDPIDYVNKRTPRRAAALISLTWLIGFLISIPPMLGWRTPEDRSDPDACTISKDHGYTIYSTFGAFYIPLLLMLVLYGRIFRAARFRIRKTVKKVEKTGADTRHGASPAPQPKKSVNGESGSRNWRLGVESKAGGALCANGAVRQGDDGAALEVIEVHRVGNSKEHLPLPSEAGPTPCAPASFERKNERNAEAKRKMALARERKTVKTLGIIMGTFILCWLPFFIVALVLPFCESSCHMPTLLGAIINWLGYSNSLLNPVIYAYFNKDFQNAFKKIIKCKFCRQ

[2] = organism: Homo sapiens; assay: Selectivity index, ratio of Ki for human recombinant 5-HT1A receptor to Ki for human recombinant 5-HT7 receptor
[3] = biological target: 5-hydroxytryptamine receptor 7 (Homo sapiens, UniProt P34969); assay: Displacement of [3H]LSD from human recombinant 5-HT7 receptor expressed in HEK cell membranes by radioligand binding assay; design: species or system HEK293
Sequence of 5-hydroxytryptamine receptor 7 (P34969 whole entry): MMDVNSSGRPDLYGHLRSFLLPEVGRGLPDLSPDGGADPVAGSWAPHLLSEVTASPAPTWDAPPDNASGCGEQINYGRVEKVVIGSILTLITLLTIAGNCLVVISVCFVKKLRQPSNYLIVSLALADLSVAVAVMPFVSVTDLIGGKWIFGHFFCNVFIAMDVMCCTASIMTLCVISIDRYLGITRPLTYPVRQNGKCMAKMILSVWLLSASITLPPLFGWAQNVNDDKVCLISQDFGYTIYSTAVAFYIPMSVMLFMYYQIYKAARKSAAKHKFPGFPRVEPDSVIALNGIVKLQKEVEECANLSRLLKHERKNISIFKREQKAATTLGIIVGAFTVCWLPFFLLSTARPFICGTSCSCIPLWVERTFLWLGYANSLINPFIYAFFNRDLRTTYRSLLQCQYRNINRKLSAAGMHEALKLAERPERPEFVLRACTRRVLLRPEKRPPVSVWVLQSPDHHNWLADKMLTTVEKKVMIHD

[4] = biological target: 5-hydroxytryptamine receptor 2A (Homo sapiens, UniProt P28223); assay: Displacement of [3H]ketanserin from human recombinant 5-HT2A receptor expressed in HEKT cell membranes by radioligand binding assay; format: cell-based
Sequence of 5-hydroxytryptamine receptor 2A (P28223 whole entry): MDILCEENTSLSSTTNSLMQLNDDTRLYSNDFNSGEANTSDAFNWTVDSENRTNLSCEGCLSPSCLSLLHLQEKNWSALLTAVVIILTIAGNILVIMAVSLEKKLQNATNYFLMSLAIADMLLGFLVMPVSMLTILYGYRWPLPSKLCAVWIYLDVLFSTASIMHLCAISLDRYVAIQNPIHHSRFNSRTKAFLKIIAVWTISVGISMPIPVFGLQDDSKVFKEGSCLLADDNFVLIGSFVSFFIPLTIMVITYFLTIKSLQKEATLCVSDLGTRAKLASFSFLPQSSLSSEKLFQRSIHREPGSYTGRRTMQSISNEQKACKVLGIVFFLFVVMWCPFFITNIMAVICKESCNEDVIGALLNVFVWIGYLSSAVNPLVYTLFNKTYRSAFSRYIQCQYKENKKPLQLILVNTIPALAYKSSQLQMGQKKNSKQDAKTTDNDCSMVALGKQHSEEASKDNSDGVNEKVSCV

[5] = organism: Homo sapiens; assay: Selectivity index, ratio of Ki for human recombinant 5-HT2A receptor to Ki for human recombinant 5-HT7 receptor
[6] = biological target: T2, 5-hydroxytryptamine receptor 1A (Homo sapiens) (UniProt P08908); assay: Potency index, ratio of Ki for N-Methyllaurotetanine to Ki for test compound against human recombinant 5-HT1A receptor expressed in CHO cell membranes by radioligand binding assay
T2 sequence (whole entry): T1 sequence (P08908 whole entry)

[7] = biological target: Muscarinic acetylcholine receptor M5 (Homo sapiens) (UniProt P08912); assay: Displacement of [3H]QNB/[3H]]NMS from human recombinant muscarinic M5 receptor expressed in CHO cell membranes by radioligand binding assay; conditions: concentration not given here
[8] = biological target: D(2) dopamine receptor (Homo sapiens) (UniProt P14416); assay: Displacement of [3H]N-methylspiperone from human recombinant dopamine D2 receptor expressed in fibroblasts cell membranes by radioligand binding assay; conditions: Fibroblast, concentration not given here
[9] = biological target: 5-hydroxytryptamine receptor 5A (Homo sapiens, UniProt P47898); assay: Displacement of [3H]LSD from human recombinant 5-HT5A receptor expressed in Flp-In CHO cell membranes by radioligand binding assay
[10] = biological target: Mu-type opioid receptor (Homo sapiens) (UniProt P35372); assay: Displacement of [3H]DAMGO from human recombinant MOR expressed in HEK cell membranes by radioligand binding assay; conditions: HEK293, concentration not given here
[11] = biological target: Sodium-dependent noradrenaline transporter (Homo sapiens, UniProt P23975); assay: Displacement of [3H]nisoxetine from human recombinant NET expressed in HEK cell membranes by radioligand binding assay; design: species or system HEK293
[12] = biological target: Sodium-dependent dopamine transporter (Homo sapiens, UniProt Q01959); assay: Displacement of [3H]WIN35428 from human recombinant DAT expressed in HEK cell membranes by radioligand binding assay; design: species or system HEK293
[13] = biological target: Alpha-2C adrenergic receptor (Homo sapiens, UniProt P18825); assay: Displacement of [3H]rauwolscine from human recombinant adrenergic alpha2C receptor expressed in MDCK cell membranes by radioligand binding assay
Sequence of Alpha-2C adrenergic receptor (P18825 whole entry): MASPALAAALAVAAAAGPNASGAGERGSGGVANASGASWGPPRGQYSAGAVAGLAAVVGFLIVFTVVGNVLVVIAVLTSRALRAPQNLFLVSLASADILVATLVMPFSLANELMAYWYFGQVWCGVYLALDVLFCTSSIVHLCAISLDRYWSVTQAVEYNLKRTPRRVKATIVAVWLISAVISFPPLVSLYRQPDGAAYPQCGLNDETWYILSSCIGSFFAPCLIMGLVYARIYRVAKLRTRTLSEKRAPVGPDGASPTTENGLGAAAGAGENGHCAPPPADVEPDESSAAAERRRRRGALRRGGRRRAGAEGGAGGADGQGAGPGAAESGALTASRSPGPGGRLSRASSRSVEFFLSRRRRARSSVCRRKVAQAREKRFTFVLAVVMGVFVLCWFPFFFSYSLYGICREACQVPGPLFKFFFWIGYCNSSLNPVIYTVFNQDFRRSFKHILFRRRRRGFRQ

[14] = biological target: Delta-type opioid receptor (Homo sapiens) (UniProt P41143); assay: Displacement of [3H]DADLE from human recombinant DOR expressed in HEK cell membranes by radioligand binding assay; conditions: HEK293, concentration not given here
[15] = biological target: D(1A) dopamine receptor (Homo sapiens, UniProt P21728); assay: Displacement of [3H]SCH23390 from human recombinant dopamine D1 receptor expressed in HEKT cell membranes by radioligand binding assay
[16] = biological target: Sigma non-opioid intracellular receptor 1 (Cavia porcellus) (UniProt Q60492); assay: Binding affinity to guinea pig sigma1 receptor by radioligand binding assay; conditions: concentration not given here
Sequence of Sigma non-opioid intracellular receptor 1 (Cavia porcellus) (Q60492 whole entry): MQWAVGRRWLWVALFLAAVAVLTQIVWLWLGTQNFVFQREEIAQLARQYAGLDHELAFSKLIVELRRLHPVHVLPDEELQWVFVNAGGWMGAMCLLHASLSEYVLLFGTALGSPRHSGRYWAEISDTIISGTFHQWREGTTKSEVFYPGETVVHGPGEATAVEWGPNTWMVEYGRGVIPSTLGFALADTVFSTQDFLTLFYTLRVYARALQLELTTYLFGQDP

[17] = biological target: Beta-2 adrenergic receptor (Homo sapiens, UniProt P07550); assay: Displacement of [3H]CGP12177 from human recombinant adrenergic beta2 receptor expressed in CHO Flp-In cell membranes by radioligand binding assay
[18] = biological target: 5-hydroxytryptamine receptor 2B (Homo sapiens, UniProt P41595); assay: Displacement of [3H]LSD from human recombinant 5-HT2B receptor expressed in HEK cell membranes by radioligand binding assay; design: species or system HEK293
[19] = biological target: D(1B) dopamine receptor (Homo sapiens) (UniProt P21918); assay: Displacement of [3H]SCH23390 from human recombinant dopamine D5 receptor expressed in HEKT cell membranes by radioligand binding assay; conditions: concentration not given here
[20] = biological target: Sodium-dependent serotonin transporter (Homo sapiens, UniProt P31645); assay: Displacement of [3H]citalopram from human recombinant SERT expressed in HEK cell membranes by radioligand binding assay; design: species or system HEK293
[21] = organism: Rattus norvegicus; assay: Displacement of [3H]muscimol from rat brain GABAA receptor by radioligand binding assay; conditions: concentration not given here
[22] = biological target: 5-hydroxytryptamine receptor 2C (Homo sapiens, UniProt P28335); assay: Displacement of [3H]mesulergine from human recombinant 5-HT2C receptor expressed in Flp-IN HEK cell membranes by radioligand binding assay; design: species or system HEK293
Sequence of 5-hydroxytryptamine receptor 2C (P28335 whole entry): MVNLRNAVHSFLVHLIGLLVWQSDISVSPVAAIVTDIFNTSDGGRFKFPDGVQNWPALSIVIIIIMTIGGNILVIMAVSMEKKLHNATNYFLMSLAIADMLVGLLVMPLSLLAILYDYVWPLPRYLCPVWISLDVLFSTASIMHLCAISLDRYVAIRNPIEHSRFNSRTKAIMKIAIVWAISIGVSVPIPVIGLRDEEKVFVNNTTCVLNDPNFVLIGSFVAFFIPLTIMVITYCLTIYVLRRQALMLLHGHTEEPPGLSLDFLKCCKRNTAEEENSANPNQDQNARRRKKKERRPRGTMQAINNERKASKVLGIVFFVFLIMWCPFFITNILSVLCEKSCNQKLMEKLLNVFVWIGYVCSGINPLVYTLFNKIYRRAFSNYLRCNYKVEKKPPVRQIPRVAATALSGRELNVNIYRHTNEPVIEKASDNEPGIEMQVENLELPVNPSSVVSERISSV

[23] = biological target: Muscarinic acetylcholine receptor M2 (Homo sapiens) (UniProt P08172); assay: Displacement of [3H]QNB/[3H]]NMS from human recombinant muscarinic M2 receptor expressed in CHO cell membranes by radioligand binding assay; conditions: concentration not given here
[24] = biological target: 5-hydroxytryptamine receptor 3A (Homo sapiens) (UniProt P46098); assay: Displacement of [3H]GR65630 from human recombinant 5-HT3 receptor expressed in HEKT cell membranes by radioligand binding assay; conditions: concentration not given here
[25] = biological target: Muscarinic acetylcholine receptor M1 (Homo sapiens) (UniProt P11229); assay: Displacement of [3H]QNB/[3H]]NMS from human recombinant muscarinic M1 receptor expressed in CHO cell membranes by radioligand binding assay; conditions: concentration not given here
Sequence of Muscarinic acetylcholine receptor M1 (Homo sapiens) (P11229 whole entry): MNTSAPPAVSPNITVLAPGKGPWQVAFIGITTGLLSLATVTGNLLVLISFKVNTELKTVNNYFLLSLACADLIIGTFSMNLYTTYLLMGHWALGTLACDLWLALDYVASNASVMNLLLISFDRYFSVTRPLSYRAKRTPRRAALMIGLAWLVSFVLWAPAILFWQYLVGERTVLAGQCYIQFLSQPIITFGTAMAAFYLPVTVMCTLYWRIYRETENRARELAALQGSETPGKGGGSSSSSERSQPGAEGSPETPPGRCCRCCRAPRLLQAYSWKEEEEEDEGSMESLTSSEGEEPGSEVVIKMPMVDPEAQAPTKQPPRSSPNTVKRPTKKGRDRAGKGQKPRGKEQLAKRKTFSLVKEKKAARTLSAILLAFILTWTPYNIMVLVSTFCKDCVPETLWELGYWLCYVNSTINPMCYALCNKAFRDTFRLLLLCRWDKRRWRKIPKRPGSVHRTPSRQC

[26] = biological target: Histamine H4 receptor (Homo sapiens) (UniProt Q9H3N8); assay: Displacement of [3H]histamine from human recombinant histamine H4 receptor by radioligand binding assay; conditions: concentration not given here
[27] = biological target: Alpha-1A adrenergic receptor (Homo sapiens) (UniProt P35348); assay: Displacement of [3H]prazosin from human recombinant adrenergic alpha1A receptor by radioligand binding assay; conditions: concentration not given here
[28] = biological target: 5-hydroxytryptamine receptor 1E (Homo sapiens) (UniProt P28566); assay: Displacement of [3H]5-HT from human recombinant 5-HT1E receptor expressed in HEK cell membranes by radioligand binding assay; conditions: HEK293, concentration not given here
Sequence of 5-hydroxytryptamine receptor 1E (Homo sapiens) (P28566 whole entry): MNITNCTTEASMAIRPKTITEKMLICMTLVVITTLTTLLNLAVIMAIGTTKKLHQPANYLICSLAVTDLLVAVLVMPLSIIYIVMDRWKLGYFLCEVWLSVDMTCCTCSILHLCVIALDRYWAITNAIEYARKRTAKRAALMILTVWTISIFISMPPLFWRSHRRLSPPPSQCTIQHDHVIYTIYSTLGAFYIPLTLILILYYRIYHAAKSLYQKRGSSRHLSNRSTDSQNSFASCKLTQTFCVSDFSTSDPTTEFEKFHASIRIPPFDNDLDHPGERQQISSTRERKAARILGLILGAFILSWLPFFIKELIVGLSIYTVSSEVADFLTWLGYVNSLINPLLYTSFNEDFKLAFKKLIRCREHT

[29] = system: Sigma 2 receptor; assay: Displacement of [3H]DTG from human recombinant sigma2 receptor by radioligand binding assay; conditions: concentration not given here
[30] = organism: Rattus norvegicus; assay: Displacement of [3H]flunitrazepam from rat brain benzodiazepine receptor by radioligand binding assay; conditions: concentration not given here
[31] = biological target: D(3) dopamine receptor (Homo sapiens, UniProt P35462); assay: Displacement of [3H]N-methylspiperone from human recombinant dopamine D3 receptor expressed in HEKT cell membranes by radioligand binding assay
[32] = biological target: Histamine H1 receptor (Homo sapiens) (UniProt P35367); assay: Displacement of [3H]pyrilamine from human recombinant histamine H1 receptor expressed in HEK cell membranes by radioligand binding assay; conditions: HEK293, concentration not given here
[33] = biological target: Muscarinic acetylcholine receptor M3 (Homo sapiens) (UniProt P20309); assay: Displacement of [3H]QNB/[3H]]NMS from human recombinant muscarinic M3 receptor expressed in CHO cell membranes by radioligand binding assay; conditions: concentration not given here
Sequence of Muscarinic acetylcholine receptor M3 (Homo sapiens) (P20309 whole entry, looked up): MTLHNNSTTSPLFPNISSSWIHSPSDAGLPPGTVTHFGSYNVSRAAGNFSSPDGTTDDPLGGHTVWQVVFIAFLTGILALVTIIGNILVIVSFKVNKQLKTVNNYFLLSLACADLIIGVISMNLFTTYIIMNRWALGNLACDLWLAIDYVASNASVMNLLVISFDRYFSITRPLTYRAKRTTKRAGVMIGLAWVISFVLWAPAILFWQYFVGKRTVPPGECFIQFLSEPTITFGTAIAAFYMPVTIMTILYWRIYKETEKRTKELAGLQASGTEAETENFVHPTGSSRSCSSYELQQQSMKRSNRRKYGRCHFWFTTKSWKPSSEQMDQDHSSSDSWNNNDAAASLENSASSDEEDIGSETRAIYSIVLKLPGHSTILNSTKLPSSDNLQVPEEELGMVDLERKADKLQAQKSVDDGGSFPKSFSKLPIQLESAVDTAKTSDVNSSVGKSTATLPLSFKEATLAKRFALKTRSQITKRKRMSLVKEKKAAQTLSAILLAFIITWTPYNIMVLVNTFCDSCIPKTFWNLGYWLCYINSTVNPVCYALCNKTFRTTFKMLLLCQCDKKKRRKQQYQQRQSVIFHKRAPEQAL

[34] = biological target: Alpha-1D adrenergic receptor (Homo sapiens) (UniProt P25100); assay: Displacement of [3H]prazosin from human recombinant adrenergic alpha1D receptor by radioligand binding assay; conditions: concentration not given here
[35] = biological target: 5-hydroxytryptamine receptor 6 (Homo sapiens, UniProt P50406); assay: Displacement of [3H]LSD from human recombinant 5-HT6 receptor expressed in HEK cell membranes by radioligand binding assay; design: species or system HEK293
[36] = biological target: D(4) dopamine receptor (Homo sapiens) (UniProt P21917); assay: Displacement of [3H]N-methylspiperone from human recombinant dopamine D4 receptor by radioligand binding assay; conditions: concentration not given here
[37] = biological target: Alpha-2B adrenergic receptor (Homo sapiens) (UniProt P18089); assay: Displacement of [3H]rauwolscine from human recombinant adrenergic alpha2B receptor expressed in HEKT cell membranes by radioligand binding assay; conditions: concentration not given here
Sequence of Alpha-2B adrenergic receptor (Homo sapiens) (P18089 whole entry): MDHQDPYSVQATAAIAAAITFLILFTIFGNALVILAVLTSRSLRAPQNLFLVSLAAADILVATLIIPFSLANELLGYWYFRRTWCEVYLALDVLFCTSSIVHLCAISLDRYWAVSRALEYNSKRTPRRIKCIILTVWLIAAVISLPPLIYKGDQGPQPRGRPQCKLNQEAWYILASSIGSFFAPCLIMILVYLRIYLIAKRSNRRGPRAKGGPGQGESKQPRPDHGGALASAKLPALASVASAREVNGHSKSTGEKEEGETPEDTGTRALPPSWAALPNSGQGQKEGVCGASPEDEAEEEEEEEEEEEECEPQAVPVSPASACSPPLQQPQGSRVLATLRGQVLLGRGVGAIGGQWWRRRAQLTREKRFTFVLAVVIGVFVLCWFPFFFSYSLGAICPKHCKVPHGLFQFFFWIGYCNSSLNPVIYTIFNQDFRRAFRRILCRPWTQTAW

[38] = biological target: Kappa-type opioid receptor (Homo sapiens) (UniProt P41145); assay: Displacement of [3H]U69593 from human recombinant KOR expressed in HEK cell membranes by radioligand binding assay; conditions: HEK293, concentration not given here
Sequence of Kappa-type opioid receptor (Homo sapiens) (P41145 whole entry): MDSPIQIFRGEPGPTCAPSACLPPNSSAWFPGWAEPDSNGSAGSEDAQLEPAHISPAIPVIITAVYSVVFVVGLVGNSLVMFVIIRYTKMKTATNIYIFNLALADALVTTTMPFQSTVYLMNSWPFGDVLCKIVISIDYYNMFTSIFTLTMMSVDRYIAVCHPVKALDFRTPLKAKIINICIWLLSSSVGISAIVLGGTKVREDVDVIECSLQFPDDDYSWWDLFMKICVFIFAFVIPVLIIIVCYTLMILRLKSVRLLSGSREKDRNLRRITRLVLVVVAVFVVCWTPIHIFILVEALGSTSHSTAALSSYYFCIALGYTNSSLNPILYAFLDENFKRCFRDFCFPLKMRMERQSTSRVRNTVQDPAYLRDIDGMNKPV

[39] = biological target: Alpha-1B adrenergic receptor (Homo sapiens, UniProt P35368); assay: Displacement of [3H]prazosin from human recombinant adrenergic alpha1B receptor expressed in HEKT cell membranes by radioligand binding assay
[40] = biological target: Translocator protein (Rattus norvegicus) (UniProt P16257); assay: Displacement of [3H]PK11195 from rat brain PBR by radioligand binding assay; conditions: concentration not given here
[41] = biological target: Muscarinic acetylcholine receptor M4 (Homo sapiens) (UniProt P08173); assay: Displacement of [3H]QNB/[3H]]NMS from human recombinant muscarinic M4 receptor expressed in CHO cell membranes by radioligand binding assay; conditions: concentration not given here
[42] = biological target: Histamine H3 receptor (Homo sapiens) (UniProt Q9Y5N1); assay: Displacement of [3H]alpha-methylhistamine from human recombinant histamine H3 receptor expressed in HEKFlp-In cell membranes by radioligand binding assay; conditions: concentration not given here
Sequence of Histamine H3 receptor (Homo sapiens) (Q9Y5N1 whole entry): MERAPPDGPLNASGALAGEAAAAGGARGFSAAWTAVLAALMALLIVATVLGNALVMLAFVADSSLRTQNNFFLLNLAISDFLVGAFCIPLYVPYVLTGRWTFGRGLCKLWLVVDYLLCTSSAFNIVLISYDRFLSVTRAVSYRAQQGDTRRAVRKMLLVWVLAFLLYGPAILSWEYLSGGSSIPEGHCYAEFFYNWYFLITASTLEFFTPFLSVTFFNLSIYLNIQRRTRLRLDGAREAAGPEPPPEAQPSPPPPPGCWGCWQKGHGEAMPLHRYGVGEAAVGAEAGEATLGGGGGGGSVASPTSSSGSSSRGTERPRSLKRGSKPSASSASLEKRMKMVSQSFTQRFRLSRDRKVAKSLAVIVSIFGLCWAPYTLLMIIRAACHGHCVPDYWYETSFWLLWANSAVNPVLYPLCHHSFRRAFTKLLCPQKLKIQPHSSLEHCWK

COc1cc2c(cc1OCC1CC1)C[C@H]1c3c(cc(OC)c(OC)c3-2)CCN1C
Ki [1]: 224 nM | Ratio Ki [2]: 10 | Ki [3]: 22 nM | Ki [4]: 582 nM

CCCCCOc1cc2c(cc1OC)-c1c(OC)c(OC)cc3c1[C@H](C2)N(C)CC3
Ki [1]: 179 nM | Ratio Ki [5]: 10 | Ratio Ki [2]: 7 | Ki [3]: 24 nM | Ki [4]: 239 nM

CCOc1cc2c(cc1OC)-c1c(OC)c(OC)cc3c1[C@H](C2)N(C)CC3
Ki [1]: 506 nM | Ratio Ki [5]: 12 | Ratio Ki [2]: 7 | Ki [3]: 69 nM | Ki [4]: 818 nM

COc1cc2c(cc1OC1CCCCC1)C[C@H]1c3c(cc(OC)c(OC)c3-2)CCN1C
Ki [1]: 163 nM | Ratio Ki [6]: < 3 | Ratio Ki [5]: 11 | Ratio Ki [2]: 3 | Ki [3]: 50 nM | Ki [4]: 570 nM

C=CCOc1cc2c(cc1OC)-c1c(OC)c(OC)cc3c1[C@H](C2)N(C)CC3
Ki [1]: 361 nM | Ratio Ki [5]: 18 | Ratio Ki [2]: 18 | Ki [3]: 20 nM | Ki [4]: 383 nM

COc1cc2c(cc1O)C[C@H]1c3c(cc(OC)c(OC)c3-2)CCN1C
inhibition [7]: < 50% | inhibition [8]: < 50% | Ki [9]: 566 nM | inhibition [10]: < 50% | Ki [11]: > 950 nM | Ki [12]: > 950 nM | Ki [13]: > 950 nM | inhibition [14]: < 50% | Ki [15]: 373 nM | inhibition [16]: < 50% | Ki [17]: > 950 nM | Ki [18]: 323 nM | Ki [1]: 314 nM | inhibition [19]: < 50% | Ki [20]: > 950 nM | inhibition [21]: < 50% | Ki [22]: > 950 nM | inhibition [23]: < 50% | inhibition [24]: < 50% | inhibition [25]: < 50% | inhibition [26]: < 50% | inhibition [27]: < 50% | inhibition [28]: < 50% | inhibition [29]: < 50% | inhibition [30]: < 50% | Ki [31]: > 950 nM | inhibition [32]: < 50% | inhibition [33]: < 50% | inhibition [34]: < 50% | Ki [35]: 306 nM | Ratio Ki [2]: 16 | inhibition [36]: < 50% | Ki [3]: 20 nM | inhibition [37]: < 50% | inhibition [38]: < 50% | Ki [39]: > 950 nM | inhibition [40]: < 50% | inhibition [41]: < 50% | inhibition [42]: < 50%

COc1cc2c(cc1OC)-c1c(OC)c(OC)cc3c1[C@H](C2)N(C)CC3 [GLAUCINE]
Ki [1]: 171 nM | Ratio Ki [5]: 22 | Ratio Ki [2]: 4 | Ki [3]: 43 nM | Ki [4]: 966 nM

CCCCOc1cc2c(cc1OC)-c1c(OC)c(OC)cc3c1[C@H](C2)N(C)CC3
Ki [1]: 153 nM | Ratio Ki [5]: 18 | Ratio Ki [2]: 10 | Ki [3]: 15 nM | Ki [4]: 268 nM
